{"source": "patent US20240425517A1", "about": "“NOVEL COMPOUND FOR DEGRADATION OF TARGET PROTEIN OR POLYPEPTIDE BY POLYUBIQUITINATION” (PRAZER THERAPEUTICS INC., priority 2021, published 2024)", "data": [{"biological_target": "T1, ubiquitin (Homo sapiens, UniProt P0CG47)", "T1 construct": "mixed with 1 mg/mL of ubiquitin", "test": "Direct binding to ubiquitin: in vitro ubiquitination and intact protein analysis (UPLC-Q/TOF or MALDI-TOF)", "conditions": "10 μM, ubiquitin 1 mg/mL, E1, E2, E3 (ITCH/AIP4), ATP, 37° C., 4 hours", "protocol": "To confirm that the compounds represented by Formulae V to VIII of the present invention directly bind to ubiquitin, in vitro ubiquitination assay was performed, and then the compounds of Preparation Examples I′ to IV″′ (BRD4 degraders) bound to ubiquitin, a BRD4 inhibitor, and ubiquitin were detected using intact protein analysis. The intact protein analysis is a method capable of measuring a compound bound to a protein by mass spectrometry without protease pretreatment. Experiments were performed using ITCH/AIP4 proteins (manufacturer: R&D System), which are E3 ligases, in order to bind ubiquitin and BRD4 degraders in vitro.\nSpecifically, 10 μM of each degrader was mixed with 1 mg/mL of ubiquitin, 10× buffer, 5 nM of E1, 100 nM of E2, 14 nM of E3, and 1 mM of ATP to react in a 37° C. incubator for 4 hours. To the reacted samples, acetonitrile and formic acid were added for UPLC-Q/TOF or MALDI-TOF analysis, resulting in the final concentrations of 50% acetonitrile and 0.1% formic acid, respectively. For UPLC-Q/TOF, a Micromass Q-TOF micro Synapt High-definition mass spectrometer equipped with ESI was used to perform the mass spectrometry. […] The experimental results were analyzed using TOF/TOF™ Series Explorer™ software version 4.0.", "values": [{"smiles": "Cc1sc2c(c1C)C(c1ccc(Cl)cc1)=N[C@@H](CC(=O)OC(C)(C)C)c1nnc(C)n1-2", "note": "[JQ1]", "molecular weight peak of ubiquitin bound to the compound (intact protein analysis, FIGS. 3A-3J)": "not detected"}]}, {"biological_target": "T2, p38 proteins (Mus musculus, UniProt P47811)", "T2 construct": "endogenous in cells; host or cells: RAW 264.7", "T2 sequence (P47811 whole entry)": "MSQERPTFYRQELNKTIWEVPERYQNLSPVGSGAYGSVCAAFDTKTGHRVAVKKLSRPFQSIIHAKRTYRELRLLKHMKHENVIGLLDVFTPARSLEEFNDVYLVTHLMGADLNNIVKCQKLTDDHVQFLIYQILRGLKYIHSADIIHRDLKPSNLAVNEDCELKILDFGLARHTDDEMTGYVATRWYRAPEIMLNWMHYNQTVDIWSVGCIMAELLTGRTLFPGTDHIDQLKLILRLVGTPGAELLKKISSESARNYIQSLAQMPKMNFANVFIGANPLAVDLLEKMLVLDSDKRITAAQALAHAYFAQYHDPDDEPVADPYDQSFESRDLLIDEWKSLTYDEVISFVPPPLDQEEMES", "test": "Degradation of p38 in Raw 264.7 macrophages (Western blot densitometry)", "type": "cell-based", "conditions": "10 μM, 24 hours", "protocol": "To confirm that the compounds (p38 degraders) of Preparation Examples I″′ to III″′ reduce the amount of phospho-p38 (p-p38) proteins, experiments were performed using Raw 264.7 macrophages. Since p38 MAPK alpha is activated through the process of phosphorylation of threonine 180 (Thr180) and tyrosine 182 (Tyr182) residues by MKK3, MKK6, and the like, which are upstream regulators, phosphorylation of these residues was generally detected using an antibody (3D7 rabbit monoclonal antibody from Cell Signaling, Inc.) that specifically recognizes phospho-p38 (p-p38) MAPK in which p38 MAPK alpha was activated.\nSpecifically, the RAW 264.7 cells were cultured in DMEM medium containing 10% fetal bovine serum (FBS), 1% penicillin, and streptomycin (100 U/mL), transferred to a 6-well plate, and after 24 hours, the p38 degraders were diluted in the DMEM culture medium and the cells were treated with 10 μM concentration thereof. After treatment, the cells were incubated in a CO2 incubator for 24 hours. Through protein immunoblotting (Western Blot), the degrading capacity of each compound against p38 and p-p38 proteins in cells was confirmed. After cell culture was completed according to the experimental conditions, the cells were collected and centrifuged at 1,800 rpm for 3 minutes. The cells in the precipitate were lysed with RIPA (25 mM Tris-HCl pH 7.6, 150 mM NaCl, 1% NP-40, 1% sodium deoxycholate, 0.1% SDS, 1× Protease Inhibitor Cocktail), 5× sample buffer was added, and then heated at 100° C. for 15 minutes. The prepared sample was electrophoresed with sodium dodecyl sulfate poly acrylamide gel electrophoresis (SDS-PAGE), and then the proteins in the gel were transferred to a PVDF membrane using Trans-Blot Turbo. The membrane was treated with a 5% bovine serum albumin (BSA) solution and blocked at room temperature for 2 hours, and then p-p38, p38, and R-actin antibodies were diluted in the 5% BSA solution to react with the membrane at 4° C. overnight. After washed with PBST (phosphate-based saline containing 0.5% Tween20) 5 times, horse radish peroxidase (HRP)-conjugated secondary antibodies were diluted in PBST to react at room temperature for 2 hours, and then washed again with a PBST solution 5 times. After enzyme-substrate reaction was carried out using a HRP substrate, a signal was measured with chemi-doc equipment, and the densitometry of bands corresponding to the p-p38 and p38 proteins detected in the Preparation Example Compounds was quantitatively analyzed. The case when the degrading capacity of each p38 degrader was reduced by less than 40% is indicated as +, the case when the degrading capacity was reduced by 40% to 70% (exclusive of 70) is indicated as ++, the case when the degrading capacity was reduced by 70% or more is indicated as +++ in Tables 24 to 26 below. As shown in the following Tables, it was confirmed that the compounds of Preparation Examples I″′ to III″′ according to the present invention have excellent degrading capacity.", "values": [{"smiles": "Cc1ccc(C(=O)NC2CC2)cc1-c1ccc(C(=O)c2ccc(OCCOC(=O)Nc3ccc(C#CC(N)CO)cc3)cc2)cc1.Cl", "note": "(stereo not drawn) [3-49″′, 2-(4-(5′-(cyclopropylcarbamoyl)-2′-methyl-[1,1′-biphenyl]-4-carbonyl)phenoxy)ethyl (4-(3-amino-4-hydroxybut-1-yn-1-yl)phenyl)carbamate hydrochloride]", "p38 degrading capacity (%)": "+++ (the degrading capacity was reduced by 70% or more)"}, {"smiles": "Cc1ccc(C(=O)NC2CC2)cc1-c1ccc(C(=O)c2ccc(OCCOC(=O)NCCCNC(=O)c3ccc(C#CCN)o3)cc2)cc1", "note": "[4-166″′, 2-(4-(5′-(cyclopropylcarbamoyl)-2′-methyl-[1,1′-biphenyl]-4-carbonyl)phenoxy)ethyl (3-(5-(3-aminoprop-1-yn-1-yl)furan-2-carboxamido)propyl)carbamate trifluoroacetic acid]", "p38 degrading capacity (%)": "+++ (the degrading capacity was reduced by 70% or more)"}, {"smiles": "COC(=O)c1ccc(NC(=O)CCCC(=O)OCCOc2ccc(C(=O)c3ccc(-c4cc(C(=O)NC5CC5)ccc4C)cc3)cc2)cc1C#CCN.Cl", "note": "[5-106″′, methyl 2-(3-aminoprop-1-yn-1-yl)-4-(5-(2-(4-(5′-(cyclopropylcarbamoyl)-2′-methyl-[1,1′-biphenyl]-4-carbonyl)phenoxy)ethoxy)-5-oxopentanamido)benzoate hydrochloride]", "p38 degrading capacity (%)": "+++ (the degrading capacity was reduced by 70% or more)"}, {"smiles": "COC(=O)c1ccc(C#CCNC(=O)OCCOc2ccc(C(=O)c3ccc(-c4cc(C(=O)NC5CC5)ccc4C)cc3)cc2)cc1C#CCN.Cl", "note": "[5-116″′, methyl 2-(3-aminoprop-1-yn-1-yl)-4-(3-(((2-(4-(5′-(cyclopropylcarbamoyl)-2′-methyl-[1,1′-biphenyl]-4-carbonyl)phenoxy)ethoxy)carbonyl)amino)prop-1-yn-1-yl)benzoate hydrochloride]", "p38 degrading capacity (%)": "+++ (the degrading capacity was reduced by 70% or more)"}, {"smiles": "COC(=O)c1ccc(C(=O)N2CCN(C(=O)OCCOc3ccc(C(=O)c4ccc(-c5cc(C(=O)NC6CC6)ccc5C)cc4)cc3)CC2)cc1C#CCN", "note": "[5-140″′, 2-(4-(5′-(cyclopropylcarbamoyl)-2′-methyl-[1,1′-biphenyl]-4-carbonyl)phenoxy)ethyl 4-(3-(3-aminoprop-1-yn-1-yl)-4-(methoxycarbonyl)benzoyl)piperazine-1-carboxylate trifluoroacetic acid]", "p38 degrading capacity (%)": "+++ (the degrading capacity was reduced by 70% or more)"}]}]}
